What was measured:
FGFR4 = FGFR4 (Homo sapiens, UniProt P22455); experiment: FGFR4 Caliper Assay (in vitro biochemical kinase analysis); settings: Caliper mobility shift, 65 μM ATP, 30° C. 40 minutes; read-out: Enzymatic activity FGFR4 IC50
Experimental: I. In Vitro Biochemical Kinase Analysis of FGFR4
FGFR4 Caliper Assay was used in the present invention to determine the inhibitory activities • of the compounds against FGFR4. The specific experimental procedure was as follows: 1. The kinase reaction in the present invention was carried out in a 384-well plate, and […] of FGFR4, 65 μM of ATP and 1 μM of peptide (5 Fluo Ahx KKKKEEIYFFFG NH2) were respectively added into the following reaction system. • 2. A reaction system is a mixture solution of 50 mM HEPES, pH 7.5, 1 mM DTT, 0.02% Tween 20, 0.02% BSA, 0.6% DMSO, 10 mM beta glycerol phosphate and 10 μM sodium orthovanadate and 16 mM MgCl2. • 3. The reaction system was incubated at 30° C. for 40 minutes. • 4. The reaction was terminated by adding a stop solution (100 mM HEPES, pH 7.5, 5% DMSO, 0.1% Caliper coating reagent, 10 mM EDTA and 0.015% Brij35). • 5. The culture plate with the terminated kinase reaction was transferred to the Caliper LC 3000 workstation to read the data, the phosphorylated and unphosphorylated peptides were separated by using the Caliper microfluid migration shift technique, and the analyte was transferred by allowing a constant buffer flow through the chip, the migration of the substrate peptide was monitored by the labeled fluorescent signal, and the kinase activity was calculated by using the amount of the phosphate-based peptide formed. • 6. Finally, IC50 values were determined by non-linear regression analysis of percent inhibition at different compound concentrations. II. FGFR4 Cell Proliferation Experiment

[1] = system: Huh7 hepatocellular carcinoma cells; experiment: Cell Titer Glo (CTG) cell proliferation experiment; assay type: cell-based; settings: Homo sapiens, 72 h, HuH-7 cells, 3 days; for IC50: concentration leading to absolute half growth inhibition; for EC50: concentration leading to half maximal growth inhibition
Experimental: Cell Titer Glo (CTG) experiment was used in the present invention to evaluate the functional effects of the compounds on cell proliferation. Huh7 hepatocellular carcinoma cells (Catalog No. TChU182) from the Chinese Academy of Sciences cell bank were cultured in DMEM with high glucose (Gibco, cat. No. 1773536), 10% fetal bovine serum (Gibco, 10099-141) at 37° C., in a 5% CO2 incubator. Compound-mediated inhibition of cell proliferation/survival was assessed by quantification of cellular ATP levels using CTG reagent (Promega, #G7573). The specific experimental procedure was as follows: • 1. The cells were seeded into a tissue culture medium-treated 96-well plate (Costar #3904) at 3500 cells/well/90 μL of fresh medium; • 2. 10 μL of medium containing a compound concentration of 10 fold of its final test concentration was added; • 3. The dose effect as evaluated by a 5-fold serial dilution of the test compound, starting from 10 μM. • 4. After cells incubation for 3 days at 37° C. in a 5% CO2 atmosphere, the effect of the inhibitor on cell proliferation was quantified after adding 50 μL of CTG and testing with luminescence. • 5. The concentration of the compound (EC50) leading to half maximal growth inhibition and the concentration of compound (Absolute IC50) leading to absolute half growth inhibition were determined using a four-parameter curve fit in Graphpad Prism in a plate reader (M1000, Tecan).

FGFR4, sequence (P22455 22-802): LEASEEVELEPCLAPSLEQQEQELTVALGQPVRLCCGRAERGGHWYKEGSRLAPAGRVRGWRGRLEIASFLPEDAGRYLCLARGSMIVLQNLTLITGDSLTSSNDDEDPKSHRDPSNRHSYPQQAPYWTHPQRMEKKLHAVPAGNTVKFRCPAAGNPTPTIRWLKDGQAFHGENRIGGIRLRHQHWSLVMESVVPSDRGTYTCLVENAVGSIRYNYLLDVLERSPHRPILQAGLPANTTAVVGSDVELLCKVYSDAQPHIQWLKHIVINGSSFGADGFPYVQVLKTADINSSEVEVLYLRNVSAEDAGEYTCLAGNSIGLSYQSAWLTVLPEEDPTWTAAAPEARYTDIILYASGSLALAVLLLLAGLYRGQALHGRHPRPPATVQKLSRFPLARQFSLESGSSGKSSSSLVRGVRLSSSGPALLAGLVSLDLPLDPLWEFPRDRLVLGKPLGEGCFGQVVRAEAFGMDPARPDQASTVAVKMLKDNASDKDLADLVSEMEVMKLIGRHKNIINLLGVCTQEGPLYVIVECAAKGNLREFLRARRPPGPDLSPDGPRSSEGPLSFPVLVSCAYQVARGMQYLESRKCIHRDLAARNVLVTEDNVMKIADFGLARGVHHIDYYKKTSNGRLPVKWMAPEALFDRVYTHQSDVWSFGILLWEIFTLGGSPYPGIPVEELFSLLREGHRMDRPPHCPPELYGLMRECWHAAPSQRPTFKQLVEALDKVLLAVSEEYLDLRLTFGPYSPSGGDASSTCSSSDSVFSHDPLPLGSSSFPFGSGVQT

Row | Compound | IC50 (FGFR4) [µM] | IC50 [1] [µM] | EC50 [1] [µM]
1 | CN1CCN(Cc2ccc(N(C)C(=O)Nc3cc(NC4CC4)c(C#N)cn3)nc2C=O)C(=O)C1 [Example 1, 3-(5-cyano-4-(cyclopropylamino)pyridin-2-yl)-1-(6-formyl-5-((4-methyl-2-oxopiperazin-1-yl)methyl)pyridin-2-yl)-1-methylurea] | 0.002 | 0.0262 | 0.0083
2 | CN1CCN(Cc2ccc(N(C)C(=O)Nc3cc(NCCF)c(C#N)cn3)nc2C=O)C(=O)C1 [Example 2, 3-(5-cyano-4-((2-fluoroethyl)amino)pyridin-2-yl)-1-(6-formyl-5-((4-methyl-2-oxopiperazin-1-yl)methyl)pyridin-2-yl)-1-methylurea] | 0.008 | – | –
3 | CN1CCN(Cc2ccc(N(C)C(=O)Nc3cc(NCC4CC4)c(C#N)cn3)nc2C=O)C(=O)C1 [Example 4, 3-(5-cyano-4-((cyclopropylmethyl)amino)pyridin-2-yl)-1-(6-formyl-5-((4-methyl-2-oxopiperazin-1-yl)methyl)pyridin-2-yl)-1-methylurea] | 0.0038 | 0.0774 | 0.0256
4 | CN1CCN(Cc2ccc(N(C)C(=O)Nc3cc(NC4CC(F)(F)C4)c(C#N)cn3)nc2C=O)C(=O)C1 [Example 7, 3-(5-cyano-4-((3,3-difluorocyclobutyl)amino)pyridin-2-yl)-1-(6-formyl-5-((4-methyl-2-oxopiperazin-1-yl)methyl)pyridin-2-yl)-1-methylurea] | 0.0028 | 0.0632 | 0.0204
5 | COC1CC(Nc2cc(NC(=O)N(C)c3ccc(CN4CCN(C)CC4=O)c(C=O)n3)ncc2C#N)C1 (centres unmarked) [Example 8, 3-(5-cyano-4-((3-methoxycyclobutyl)amino)pyridin-2-yl)-1-(6-formyl-5-((4-methyl-2-oxopiperazin-1-yl)methyl)pyridin-2-yl)-1-methylurea] | 0.0058 | – | –
6 | COC1(C)CN(c2cc(NC(=O)N(C)c3ccc(CN4CCN(C)CC4=O)c(C=O)n3)ncc2C#N)C1 [Example 11, 3-(5-cyano-4-(3-methoxy-3methylazetidin-1-yl)pyridin-2-yl)-1-(6-formyl-5-((4-methyl-2-oxopiperazin-1-yl)methyl)pyridin-2-yl)-1-methylurea] | 0.0069 | 0.177 | 0.0822
7 | CN1CCN(Cc2ccc(N(C)C(=O)Nc3cc(NC4CCOC4)c(C#N)cn3)nc2C=O)C(=O)C1 (centres unmarked) [Example 14, 3-(5-cyano-4-((tetrahydrofuran-3-yl)amino)pyridin-2-yl)-1-(6-formyl-5-((4-methyl-2-oxopiperazin-1-yl)methyl)pyridin-2-yl)-1-methylurea] | 0.0057 | 0.0574 | 0.0201
8 | CN1CCN(Cc2ccc(N(C)C(=O)Nc3cc(NC4CCC(F)(F)C4)c(C#N)cn3)nc2C=O)C(=O)C1 (centres unmarked) [Example 15, 3-(5-cyano-4-((3,3-difluorocyclopentyl)amino)pyridin-2-yl)-1-(6-formyl-5-((4-methyl-2-oxopiperazin-1-yl)methyl)pyridin-2-yl)-1-methylurea] | 0.0023 | 0.0486 | 0.0193
9 | COC1CCN(c2cc(NC(=O)N(C)c3ccc(CN4CCN(C)CC4=O)c(C=O)n3)ncc2C#N)C1 (centres unmarked) [Example 17, 3-(5-cyano-4-(3-methoxypyrrolidin-1-yl)pyridin-2-yl)-1-(6-formyl-5-((4-methyl-2-oxopiperazin-1-yl)methyl)pyridin-2-yl)-1-methylurea] | 0.0065 | 0.0849 | 0.0381
10 | CN1CCN(Cc2ccc(N(C)C(=O)Nc3cc(NCC4CCCO4)c(C#N)cn3)nc2C=O)C(=O)C1 (centres unmarked) [Example 21, 3-(5-cyano-4-(((tetrahydrofuran-2-yl)methyl)amino)pyridin-2-yl)-1-(6-formyl-5-((4-methyl-2-oxopiperazin-1-yl)methyl)pyridin-2-yl)-1-methylurea] | 0.008 | 0.0554 | 0.0227
11 | CN1CCN(Cc2ccc(N(C)C(=O)Nc3cc(N4CCOCC4)c(C#N)cn3)nc2C=O)C(=O)C1 [Example 24, 3-(5-cyano-4-morpholinopyridin-2-yl)-1-(6-formyl-5-((4-methyl-2-oxopiperazin-1-yl)methyl)pyridin-2-yl)-1-methylurea] | 0.0522 | 1.8 | 1.08
12 | CN1CCN(Cc2ccc(N(C)C(=O)Nc3cc(N4CCC5(CCOC5)C4)c(C#N)cn3)nc2C=O)C(=O)C1 (centres unmarked) [Example 30, 3-(5-cyano-4-(2-oxa-7-azaspiro[4.4]nonan-7-yl)pyridin-2-yl)-1-(6-formyl-5-((4-methyl-2-oxopiperazin-1-yl)methyl)pyridin-2-yl)-1-methylurea] | – | 0.207 | 0.0768
13 | CC(C)Sc1cc(NC(=O)N(C)c2ccc(CN3CCN(C)CC3=O)c(C=O)n2)ncc1C#N [Example 34, 3-(5-cyano-4-(isopropylthio)pyridin-2-yl)-1-(6-formyl-5-((4-methyl-2-oxopiperazin-1-yl)methyl)pyridin-2-yl)-1-methylurea] | 0.0029 | 0.118 | 0.0408
14 | COCCOc1cc(NC(=O)N(C)c2ccc(CN3CCN(C)CC3=O)c(C=O)n2)ncc1C#N [Example 36, 3-(5-cyano-4-(2-methoxyethoxy)pyridin-2-yl)-1-(6-formyl-5-((4-methyl-2-oxopiperazin-1-yl)methyl)pyridin-2-yl)-1-methylurea] | 0.0171 | 0.41 | 0.191
15 | CN1CCN(Cc2ccc(N(C)C(=O)Nc3cc(OCC4CC4)c(C#N)cn3)nc2C=O)C(=O)C1 [Example 39, 3-(5-cyano-4-(cyclopropylmethoxy)pyridin-2-yl)-1-(6-formyl-5-((4-methyl-2-oxopiperazin-1-yl)methyl)pyridin-2-yl)-1-methylurea] | 0.0034 | 0.101 | 0.0488
16 | CCN(C(=O)Nc1cc(NC2CC2)c(C#N)cn1)c1ccc(CN2CCN(C)CC2=O)c(C=O)n1 [Example 51, 3-(5-cyano-4-(cyclopropylamino)pyridin-2-yl)-1-ethyl-1-(6-formyl-5-((4-methyl-2-oxopiperazin-1-yl)methyl)pyridin-2-yl)urea] | 0.0014 | 0.065 | 0.027
17 | N#Cc1cnc(NC(=O)C2(c3cccc(C=O)n3)CC2)cc1NC1CC1 [Example 52, N-(5-cyano-4-(cyclopropylamino)pyridin-2-yl)-1-(6-formylpyridin-2-yl)cyclopropane-1-carboxamide] | 0.0163 | – | –
18 | CN1CCN(Cc2ccc(N(C)C(=O)Nc3cc(NC4CC4)c(I)cn3)nc2C=O)C(=O)C1 [Example 56, 3-(4-(cyclopropylamino)-5-iodopyridin-2-yl)-1-(6-formyl-5-((4-methyl-2-oxopiperazin-1-yl)methyl)pyridin-2-yl)-1-methylurea] | 0.0081 | 0.223 | 0.093

— patent US11312701B2, “Formylpyridine derivative having FGFR4 inhibitory activity, preparation method therefor and use thereof” (Abbisko Therapeutics Co., Ltd., priority 2017, dated 2022)
